According to paper PMC4460250, “Systems Pharmacology Dissecting Holistic Medicine for Treatment of Complex Diseases: An Example Using Cardiocerebrovascular Diseases Treated by TCM” (Evidence-based Complementary and Alternative Medicine : eCAM, 2015):

Assays:
[1] = in vivo; cited from earlier work
[2] = in vivo

| SMILES | HIA(Human Intestinal Absorption) [1] | Class(High: HIA value ≥0.7; Low: HIA value < 0.7) [2] |
| --- | --- | --- |
| Cc1ccccc1N1C(=O)c2cc(S(N)(=O)=O)c(Cl)cc2N[C@@H]1C [Metolazone(S)] | 0.64 | Low (key: High: HIA value ≥0.7; Low: HIA value < 0.7) |
| COCCc1ccc(OC[C@H](O)CNC(C)C)cc1 [Metoprolol(R)] | 0.96 | High (key: High: HIA value ≥0.7; Low: HIA value < 0.7) |
| COCCc1ccc(OC[C@@H](O)CNC(C)C)cc1 [Metoprolol(S)] | 0.96 | High (key: High: HIA value ≥0.7; Low: HIA value < 0.7) |
| Cc1cccc(C)c1OC[C@@H](C)N [Mexiletine(R)] | 0.98 | High (key: High: HIA value ≥0.7; Low: HIA value < 0.7) |
| Clc1ccc(CO[C@@H](Cn2ccnc2)c2ccc(Cl)cc2Cl)c(Cl)c1 [Miconazole(R)] | 0.99 | High (key: High: HIA value ≥0.7; Low: HIA value < 0.7) |
| Clc1ccc(CO[C@H](Cn2ccnc2)c2ccc(Cl)cc2Cl)c(Cl)c1 [Miconazole(S)] | 0.99 | High (key: High: HIA value ≥0.7; Low: HIA value < 0.7) |
| Cc1ncc2n1-c1ccc(Cl)cc1C(c1ccccc1F)=NC2 [Midazolam] | 1 | High (key: High: HIA value ≥0.7; Low: HIA value < 0.7) |
| COP(=O)(OC)O[C@@H](c1ccc(Cl)cc1)P(=O)(OC)OC [Mifobate(R)] | 0.82 | High (key: High: HIA value ≥0.7; Low: HIA value < 0.7) |
| COP(=O)(OC)O[C@H](c1ccc(Cl)cc1)P(=O)(OC)OC [Mifobate(S)] | 0.82 | High (key: High: HIA value ≥0.7; Low: HIA value < 0.7) |
| CCCCC(C)(O)C/C=C/[C@H]1[C@H](O)CC(=O)[C@@H]1CCCCCCC(=O)OC (stereo partly drawn) [Misoprostol(R)] | 0.88 | High (key: High: HIA value ≥0.7; Low: HIA value < 0.7) |
| NC(=O)C[S+]([O-])C(c1ccccc1)c1ccccc1 (stereo not shown) [Modafinil] | 0.8 | High (key: High: HIA value ≥0.7; Low: HIA value < 0.7) |
| COc1cc2c(cc1OC)CN(C(=O)[C@H](C)N[C@@H](CCc1ccccc1)C(=O)O)[C@H](C(=O)O)C2 [Moexipril_diacid] | 0.05 | Low (key: High: HIA value ≥0.7; Low: HIA value < 0.7) |
| CO[C@@]1(NC(=O)C(C(=O)O)c2ccc(O)cc2)C(=O)N2C(C(=O)O)=C(CSc3nnnn3C)CO[C@@H]21 (stereo partly drawn) [Moxalactam(R)] | 0.01 | Low (key: High: HIA value ≥0.7; Low: HIA value < 0.7) |
| CC(C)[C@H]1CC[C@H](C(=O)N[C@H](Cc2ccccc2)C(=O)O)CC1 [Nateglinide(R)] | 0.83 | High (key: High: HIA value ≥0.7; Low: HIA value < 0.7) |
| NC[C@@H]1O[C@H](O[C@H]2[C@@H](O)[C@H](O[C@@H]3[C@@H](O)[C@H](N)C[C@H](N)[C@H]3O[C@H]3O[C@H](CN)[C@@H](O)[C@H](O)[C@H]3N)O[C@@H]2CO)[C@H](N)[C@@H](O)[C@@H]1O [Neomycin] | 0.03 | Low (key: High: HIA value ≥0.7; Low: HIA value < 0.7) |
| CN(C)C(=O)Oc1cccc([N+](C)(C)C)c1 [Neostigmine] | 0.02 | Low (key: High: HIA value ≥0.7; Low: HIA value < 0.7) |
| COC(=O)C1=C(C)NC(C)=C(C(=O)OCCN(C)Cc2ccccc2)[C@@H]1c1cccc([N+](=O)[O-])c1 [Nicardipine(R)] | 0.95 | High (key: High: HIA value ≥0.7; Low: HIA value < 0.7) |
| COC(=O)C1=C(C)NC(C)=C(C(=O)OCCN(C)Cc2ccccc2)[C@H]1c1cccc([N+](=O)[O-])c1 [Nicardipine(S)] | 0.95 | High (key: High: HIA value ≥0.7; Low: HIA value < 0.7) |
| CN1CCC[C@H]1c1cccnc1 [Nicotine(S)] | 1 | High (key: High: HIA value ≥0.7; Low: HIA value < 0.7) |
| COC(=O)C1=C(C#N)NC(C)=C(C(=O)OC(C)C)[C@H]1c1cccc([N+](=O)[O-])c1 [Nilvadipine(R)] | 1 | High (key: High: HIA value ≥0.7; Low: HIA value < 0.7) |
| COC(=O)C1=C(C#N)NC(C)=C(C(=O)OC(C)C)[C@@H]1c1cccc([N+](=O)[O-])c1 [Nilvadipine(S)] | 1 | High (key: High: HIA value ≥0.7; Low: HIA value < 0.7) |

| SMILES | HIA(Human Intestinal Absorption) [1] | Class(High: HIA value ≥0.7; Low: HIA value < 0.7) [2] |
| --- | --- | --- |
| COC(=O)C1=C(C)NC(C)=C(C(=O)OCC(C)C)[C@@H]1c1ccccc1[N+](=O)[O-] [Nisoldipine(R)] | 0.9 | High (key: High: HIA value ≥0.7; Low: HIA value < 0.7) |
| COC(=O)C1=C(C)NC(C)=C(C(=O)OCC(C)C)[C@H]1c1ccccc1[N+](=O)[O-] [Nisoldipine(S)] | 0.9 | High (key: High: HIA value ≥0.7; Low: HIA value < 0.7) |
| O=C1CN=C(c2ccccc2)c2cc([N+](=O)[O-])ccc2N1 [Nitrazepam] | 0.95 | High (key: High: HIA value ≥0.7; Low: HIA value < 0.7) |
| CCOC(=O)C1=C(C)NC(C)=C(C(=O)OC)[C@H]1c1cccc([N+](=O)[O-])c1 [Nitrendipine(R)] | 0.88 | High (key: High: HIA value ≥0.7; Low: HIA value < 0.7) |
| CCOC(=O)C1=C(C)NC(C)=C(C(=O)OC)[C@@H]1c1cccc([N+](=O)[O-])c1 [Nitrendipine(S)] | 0.88 | High (key: High: HIA value ≥0.7; Low: HIA value < 0.7) |
| O/N=C/c1cc[n+](COC[n+]2ccc(/C=N/O)cc2)cc1 [Obidoxime] | 0.05 | Low (key: High: HIA value ≥0.7; Low: HIA value < 0.7) |
| C[C@@H]1COc2c(N3CCN(C)CC3)c(F)cc3c(=O)c(C(=O)O)cn1c23 [Ofloxacin(R)] | 1 | High (key: High: HIA value ≥0.7; Low: HIA value < 0.7) |
| C[C@H]1COc2c(N3CCN(C)CC3)c(F)cc3c(=O)c(C(=O)O)cn1c23 [Ofloxacin(S)] | 1 | High (key: High: HIA value ≥0.7; Low: HIA value < 0.7) |
| Cc1nccn1C[C@H]1CCc2c(c3ccccc3n2C)C1=O [Ondansetron(R)] | 1 | High (key: High: HIA value ≥0.7; Low: HIA value < 0.7) |
| Cc1nccn1C[C@@H]1CCc2c(c3ccccc3n2C)C1=O [Ondansetron(S)] | 1 | High (key: High: HIA value ≥0.7; Low: HIA value < 0.7) |
| C=CCOc1ccccc1OC[C@H](O)CNC(C)C [Oxprenolol(R)] | 0.95 | High (key: High: HIA value ≥0.7; Low: HIA value < 0.7) |
| C=CCOc1ccccc1OC[C@@H](O)CNC(C)C [Oxprenolol(S)] | 0.95 | High (key: High: HIA value ≥0.7; Low: HIA value < 0.7) |
| COc1ccc2c3c1O[C@H]1C(=O)CC[C@@]4(O)[C@@H](C2)N(C)CC[C@]314 [Oxycodone] | 0.6 | Low (key: High: HIA value ≥0.7; Low: HIA value < 0.7) |
| COc1cccc(C(=O)CCN[C@@H](C)[C@H](O)c2ccccc2)c1 [Oxyfedrine] | 0.84 | High (key: High: HIA value ≥0.7; Low: HIA value < 0.7) |
| CCCC[C@@H]1C(=O)N(c2ccccc2)N(c2ccc(O)cc2)C1=O [Oxyphenbutazone(R)] | 1 | High (key: High: HIA value ≥0.7; Low: HIA value < 0.7) |
| CCCC[C@H]1C(=O)N(c2ccccc2)N(c2ccc(O)cc2)C1=O [Oxyphenbutazone(S)] | 1 | High (key: High: HIA value ≥0.7; Low: HIA value < 0.7) |
| COc1ccc(Cc2nccc3cc(OC)c(OC)cc23)cc1OC [Papaverine] | 0.9 | High (key: High: HIA value ≥0.7; Low: HIA value < 0.7) |
| CC(C)(C)NC[C@H](O)COc1ccccc1C1CCCC1 [Penbutolol(S)] | 1 | High (key: High: HIA value ≥0.7; Low: HIA value < 0.7) |
| CC(C)=CCN1CCC2(C)c3cc(O)ccc3CC1C2C (stereo not shown) [Pentazocine] | 0.95 | High (key: High: HIA value ≥0.7; Low: HIA value < 0.7) |
| CCC[C@@H](C)C1(CC)C(=O)NC(=O)NC1=O [Pentobarbital(R)] | 1 | High (key: High: HIA value ≥0.7; Low: HIA value < 0.7) |
